Data reported in patent US12227495B2, “Herbicidal compounds” (SYNGENTA CROP PROTECTION AG, priority 2018, dated 2025).

Legend:
Assay type in all cases: in vivo
Details in all cases: evaluated after 13 days
[1] = system: Amaranthus retoflexus (AMARE); experiment: Post-emergence herbicide test, glasshouse, percentage damage
Summary of the method: (§1)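 Pots of standard soil were sown and kept in a glasshouse at 24/16 °C day/night, 14 h light, 65% humidity; plants were sprayed one day after sowing (pre-emergence) or after 8 days (post-emergence) at 500 g/ha unless otherwise stated. Damage was scored after 13 days on a five-point scale (5=81-100%; 1=0-20%).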

[2] = system: Echinochloa crus-galli (ECHCG); experiment: as above
Summary of the method: as §1

[3] = system: Setaria faberi (SETFA); experiment: as above
Summary of the method: as §1

[4] = system: Ipomoea hederacea (IPOHE); experiment: as above
Summary of the method: as §1

[5] = system: Lolium perenne (LOLPE); experiment: as above
Summary of the method: as §1

[6] = system: Solanum nigrum (SOLNI); experiment: as above
Summary of the method: as §1

[7] = system: Amaranthus retoflexus (AMARE); experiment: Pre-emergence herbicide test, glasshouse, percentage damage
Summary of the method: as §1

[8] = system: Echinochloa crus-galli (ECHCG); experiment: as above
Summary of the method: as §1

[9] = system: Setaria faberi (SETFA); experiment: as above
Summary of the method: as §1

[10] = system: Ipomoea hederacea (IPOHE); experiment: as above
Summary of the method: as §1

[11] = system: Lolium perenne (LOLPE); experiment: as above
Summary of the method: as §1

[12] = system: Solanum nigrum (SOLNI); experiment: as above
Summary of the method: as §1

Row | SMILES | percentage damage caused to the plant, AMARE ([1]; 1000 g/ha) | percentage damage caused to the plant, ECHCG ([2]; 1000 g/ha) | percentage damage caused to the plant, SETFA ([3]; 1000 g/ha) | percentage damage caused to the plant, IPOHE ([4]; 1000 g/ha) | percentage damage caused to the plant, LOLPE ([5]; 1000 g/ha) | percentage damage caused to the plant, SOLNI ([6]; 1000 g/ha) | Pre-emergence Test AMARE percentage damage (five point scale) ([7]; rate 1000 g/ha) | Pre-emergence Test ECHCG percentage damage (five point scale) ([8]; rate 1000 g/ha) | Pre-emergence Test SETFA percentage damage (five point scale) ([9]; rate 1000 g/ha) | Pre-emergence Test IPOHE percentage damage (five point scale) ([10]; rate 1000 g/ha) | Pre-emergence Test LOLPE percentage damage (five point scale) ([11]; rate 1000 g/ha) | Pre-emergence Test SOLNI percentage damage (five point scale) ([12]; rate 1000 g/ha) | other results
1 | Fc1cccc(Oc2cc(OC(F)(F)F)ccn2)c1-c1cc(C(F)F)no1 [Compound A62] | 4 (4=61-80%) | 3 (3=41-60%) | 3 (3=41-60%) | 3 (3=41-60%) | 2 (2=21-40%) | 3 (3=41-60%) | 4 (4=61-80%) | 1 (1=0-20%) | 1 (1=0-20%) | 1 (1=0-20%) | 1 (1=0-20%) | 1 (1=0-20%) | 
2 | Fc1cc(Cl)cnc1Oc1ccccc1-n1ccnc1 [Compound A28, 5-chloro-3-fluoro-2-(2-imidazol-1-ylphenoxy)pyridine] | 5 (5=81-100%) | 1 (1=0-20%) | 1 (1=0-20%) | 1 (1=0-20%) | 1 (1=0-20%) | 4 (4=61-80%) | 3 (3=41-60%) | 1 (1=0-20%) | 1 (1=0-20%) | 1 (1=0-20%) | 1 (1=0-20%) | 1 (1=0-20%) | 
3 | N#Cc1ccnc(Oc2cccc(Cl)c2-c2cc(C(F)F)no2)c1 [Compound A91] | 4 (4=61-80%) | 4 (4=61-80%) | 4 (4=61-80%) | 4 (4=61-80%) | 4 (4=61-80%) | 4 (4=61-80%) | 4 (4=61-80%) | 5 (5=81-100%) | 5 (5=81-100%) | 4 (4=61-80%) | 4 (4=61-80%) | 3 (3=41-60%) | 
4 | N#Cc1cccc(Oc2ncc(Cl)cc2F)c1-n1cc(C(F)(F)F)cn1 [Compound A33, 3-[(5-chloro-3-fluoro-2-pyridyl)oxy]-2-[4-(trifluoromethyl)pyrazol-1-yl]benzonitrile] | 5 (5=81-100%) | 5 (5=81-100%) | 5 (5=81-100%) | 5 (5=81-100%) | 5 (5=81-100%) | 5 (5=81-100%) | 5 (5=81-100%) | 5 (5=81-100%) | 5 (5=81-100%) | 2 (2=21-40%) | 4 (4=61-80%) | 5 (5=81-100%) | 
5 | Cc1cccc(Oc2ncc(Cl)cc2F)c1-n1cc(C(F)(F)F)cn1 [Compound A54] | 3 (3=41-60%) | 3 (3=41-60%) | 5 (5=81-100%) | 1 (1=0-20%) | 4 (4=61-80%) | 5 (5=81-100%) | 5 (5=81-100%) | 3 (3=41-60%) | 5 (5=81-100%) | 1 (1=0-20%) | 5 (5=81-100%) | 5 (5=81-100%) | 
6 | N#Cc1cc(F)cnc1Oc1cccc(Br)c1-c1cc(C(F)F)no1 [Compound A84] | 5 (5=81-100%) | 5 (5=81-100%) | 5 (5=81-100%) | 5 (5=81-100%) | 5 (5=81-100%) | 5 (5=81-100%) | 5 (5=81-100%) | 5 (5=81-100%) | 5 (5=81-100%) | 5 (5=81-100%) | 5 (5=81-100%) | 4 (4=61-80%) | 
7 | N#Cc1cccnc1Oc1cccc(Cl)c1-c1cc(C(F)F)no1 [Compound A120] | 5 (5=81-100%) | 4 (4=61-80%) | 5 (5=81-100%) | 4 (4=61-80%) | 3 (3=41-60%) | 5 (5=81-100%) | 5 (5=81-100%) | 5 (5=81-100%) | 5 (5=81-100%) | 3 (3=41-60%) | 2 (2=21-40%) | 4 (4=61-80%) | 
8 | N#Cc1ccc(Oc2cccc(F)c2-c2cc(C(F)F)no2)nc1 [Compound A12] |  |  |  |  |  |  |  |  |  |  |  |  | percentage damage caused to the plant, AMARE ([1]; 500 g/ha): 5 (5=81-100%); percentage damage caused to the plant, ECHCG ([2]; 500 g/ha): 5 (5=81-100%); percentage damage caused to the plant, SETFA ([3]; 500 g/ha): 5 (5=81-100%); percentage damage caused to the plant, IPOHE ([4]; 500 g/ha): 5 (5=81-100%); percentage damage caused to the plant, LOLPE ([5]; 500 g/ha): 5 (5=81-100%); percentage damage caused to the plant, SOLNI ([6]; 500 g/ha): 5 (5=81-100%); Pre-emergence Test AMARE percentage damage (five point scale) ([7]; rate 500 g/ha): 5 (5=81-100%); Pre-emergence Test ECHCG percentage damage (five point scale) ([8]; rate 500 g/ha): 5 (5=81-100%); Pre-emergence Test SETFA percentage damage (five point scale) ([9]; rate 500 g/ha): 5 (5=81-100%); Pre-emergence Test IPOHE percentage damage (five point scale) ([10]; rate 500 g/ha): 5 (5=81-100%); Pre-emergence Test LOLPE percentage damage (five point scale) ([11]; rate 500 g/ha): 5 (5=81-100%); Pre-emergence Test SOLNI percentage damage (five point scale) ([12]; rate 500 g/ha): 5 (5=81-100%)
9 | Fc1cc(Cl)cnc1Oc1cccc(Br)c1-c1cc(C(F)F)no1 [Compound A44] | 5 (5=81-100%) | 5 (5=81-100%) | 5 (5=81-100%) | 5 (5=81-100%) | 5 (5=81-100%) | 5 (5=81-100%) | 5 (5=81-100%) | 5 (5=81-100%) | 5 (5=81-100%) | 5 (5=81-100%) | 5 (5=81-100%) | 5 (5=81-100%) | 
